Earlier results, collected in US4749649A, “Microbial Δ1-dehydrogenation process using a scavenger of toxic oxygen” (The Upjohn Company, priority 1983, dated 1988).

What was measured:
[1] = tested on: steroid-1-dehydrogenase; conditions: Pseudomonas testosteroni; potential toxicity by superoxide and peroxide formation
[2] = compared with hydrocortisone and cortisone
[3] = compared with hydrocortisone and cortisone; remark: listed apart in the source

Row | SMILES | 1-dehydrogenase activity in the presence of PMS [1] | drug-induced salt retention [2] | potency [3]
1 | C[n+]1c2ccccc2nc2ccccc21 [PMS, phenazinemethosulfate] | essentially unaffected | – | –
2 | C[C@]12C=CC(=O)C=C1CC[C@@H]1[C@@H]2[C@@H](O)C[C@@]2(C)[C@H]1CC[C@]2(O)C(=O)CO [prednisolone] | – | less drug-induced salt retention | enhanced potency
3 | C[C@]12C=CC(=O)C=C1CC[C@@H]1[C@@H]2C(=O)C[C@@]2(C)[C@H]1CC[C@]2(O)C(=O)CO [prednisone] | – | less drug-induced salt retention | –
